Data from paper PMC4138103 (PLoS ONE, 2014).

Tested on: Sprague-Dawley rats
Assay: Brain amino acid analyses
Assay type: in vivo, Rattus norvegicus
Design: key to Glutathione, trend over total doses: D: significant dose response (for results, see Table 2); T: significant trend
Procedure: The right hemisphere of cerebrum was rapidly weighed and homogenized in ice cold 7% HClO4 [35] using a glass/teflon Potter-Elvehjem homogenizer (Schwaben Prazision Nordlingen type L43). α-Amino adipic acid was used as internal standard. Samples were neutralized to pH 6.5–7.5 with ice cold KOH/HCl and centrifuged for 20 min at 20 000 g and 4°C in a Sorvall RMC-14-micro centrifuge. Pellets were frozen at −40°C for later protein determination by the BCA-assay. Supernatants were stored at −40°C, filtered with Nylon-66 micro filters (mesh 0.22 µm; Nalgene) prior to HPLC analysis.
Total amino acids in extracts were analyzed, using a reversed-phase HPLC (ChromSpher 5 C18 column; length 25 cm, inner diameter 4.6 mm; Varian) fitted with a fluorescence detector (Shimadzu, Kyoto, Japan), after derivatization with o-phthaldialdehyde (OPA; Sigma). […] Each sample was eluted for 45 min with a flow rate of 0.4 ml/min. A mixture of the amino acids of interest was run as external standards at 100 µM. L-Amino acid standards for aspartic acid, glutamic acid, serine, glutamine, glycine and alanine] were obtained from Pierce (Rockford, Ill., USA), whereas taurine, γ-amino butyric acid, glutathione and α-amino adipic acid standards were from Sigma-Aldrich. Chromatograms were analyzed using the software Lab Solutions (Shimadzu).

[1] = brain, females, total dose 10 mg/kg bw, n 1
[2] = brain, females, total dose 30 mg/kg bw
[3] = brain, females, total dose 300 mg/kg bw
[4] = brain, females, total dose 1000 mg/kg bw
[5] = brain, males, total dose 10 mg/kg bw
[6] = brain, males, total dose 30 mg/kg bw
[7] = brain, males, total dose 300 mg/kg bw
[8] = brain, males, total dose 1000 mg/kg bw

Clc1cc(Cl)c(-c2cc(Cl)c(Cl)c(Cl)c2Cl)cc1Cl [PCB 180, 2,2′,3′,4,4′,5,5′-heptachlorobiphenyl]
Amino acid concentration in cerebrum vs controls (both genders, 10, 30, 300 or 1000 mg/kg bw): did not show significant differences | Alanine [1]: 14.25 nmol/mg protein | Aspartate [1]: 71.05 nmol/mg protein | Glutamate [1]: 124 nmol/mg protein | Glutamine [1]: 85.95 nmol/mg protein | Glutathione [1]: 16.96 nmol/mg protein | Glycine [1]: 43.99 nmol/mg protein | Serine [1]: 17.81 nmol/mg protein | Taurine [1]: 113.1 nmol/mg protein | γ-Amino butyric acid [1]: 42.71 nmol/mg protein | Alanine [2]: 12.67 nmol/mg protein | Aspartate [2]: 60.52 nmol/mg protein | Glutamate [2]: 110 nmol/mg protein | Glutamine [2]: 82.24 nmol/mg protein | Glutathione [2]: 12.19 nmol/mg protein | Glycine [2]: 43.93 nmol/mg protein | Serine [2]: 17.02 nmol/mg protein | Taurine [2]: 98.12 nmol/mg protein | γ-Amino butyric acid [2]: 40.16 nmol/mg protein | Alanine [3]: 13.51 nmol/mg protein | Aspartate [3]: 61.77 nmol/mg protein | Glutamate [3]: 111 nmol/mg protein | Glutamine [3]: 87.85 nmol/mg protein | Glutathione [3]: 11.70 nmol/mg protein | Glycine [3]: 48.50 nmol/mg protein | Serine [3]: 17.18 nmol/mg protein | Taurine [3]: 95.21 nmol/mg protein | γ-Amino butyric acid [3]: 41.47 nmol/mg protein | Alanine [4]: 13.04 nmol/mg protein | Aspartate [4]: 59.40 nmol/mg protein | Glutamate [4]: 109 nmol/mg protein | Glutamine [4]: 79.65 nmol/mg protein | Glutathione [4]: 10.79 nmol/mg protein | Glycine [4]: 43.12 nmol/mg protein | Serine [4]: 16.71 nmol/mg protein | Taurine [4]: 97.62 nmol/mg protein | γ-Amino butyric acid [4]: 40.90 nmol/mg protein | Alanine [5]: 11.68 nmol/mg protein | Aspartate [5]: 59.00 nmol/mg protein | Glutamate [5]: 110 nmol/mg protein | Glutamine [5]: 81.50 nmol/mg protein | Glutathione [5]: 12.48 nmol/mg protein | Glycine [5]: 38.78 nmol/mg protein | Serine [5]: 17.39 nmol/mg protein | Taurine [5]: 93.04 nmol/mg protein | γ-Amino butyric acid [5]: 36.29 nmol/mg protein | Alanine [6]: 12.16 nmol/mg protein | Aspartate [6]: 60.01 nmol/mg protein | Glutamate [6]: 106 nmol/mg protein | Glutamine [6]: 68.58 nmol/mg protein | Glutathione [6]: 11.48 nmol/mg protein | Glycine [6]: 38.07 nmol/mg protein | Serine [6]: 16.11 nmol/mg protein | Taurine [6]: 93.22 nmol/mg protein | γ-Amino butyric acid [6]: 36.82 nmol/mg protein | Alanine [7]: 13.02 nmol/mg protein | Aspartate [7]: 58.39 nmol/mg protein | Glutamate [7]: 111 nmol/mg protein | Glutamine [7]: 76.57 nmol/mg protein | Glutathione [7]: 10.37 nmol/mg protein | Glycine [7]: 39.90 nmol/mg protein | Serine [7]: 17.20 nmol/mg protein | Taurine [7]: 95.86 nmol/mg protein | γ-Amino butyric acid [7]: 36.14 nmol/mg protein | Alanine [8]: 12.29 nmol/mg protein | Aspartate [8]: 54.56 nmol/mg protein | Glutamate [8]: 103 nmol/mg protein | Glutamine [8]: 72.52 nmol/mg protein | Glutathione [8]: 9.97 nmol/mg protein | Glycine [8]: 40.40 nmol/mg protein | Serine [8]: 16.45 nmol/mg protein | Taurine [8]: 88.63 nmol/mg protein | γ-Amino butyric acid [8]: 35.69 nmol/mg protein | Glutathione, trend over total doses (brain, males, total doses 0-1000 mg/kg bw): T | Cerebrum glutathione concentration, max. decrease (males, at 1000 mg/kg): 18%
